Test results published in PMC5660723, “Histone Deacetylase Inhibitors Are Protective in Acute but Not in Chronic Models of Ototoxicity” (Frontiers in Cellular Neuroscience, 2017).

Columns and labels:
[1] = tested on: outer hair cells (OHCs) of p3 murine organ of Corti explants; test: Protection against gentamicin-induced OHC loss in murine organ of Corti explants; assay type: cell-based, CBA/J mice; settings: for concentration at which protection from GM-induced OHC loss begins / concentration that completely prevents GM-induced OHC loss / ED50 (median effective protective dose): 4.5 μM GM; for ED50 (median effective protective dose): 72 h co-incubation, p3 murine explants
Source text: (§1) The culture procedures have been described in detail (Chen et al., [2009]). In brief, postnatal day 3 (p3) CBA/J pups were euthanized after antisepsis using 70% ethanol. Inner ears were extracted from surrounding tissue and immersed in cold Hank’s balanced salt solution. The lateral wall tissues (stria vascularis and spiral ligament) and the auditory nerve bundle were micro-dissected from the organ of Corti. The explants were placed onto a prepared culture dish containing a 15-μL polymerized drop of rat tail collagen in 1 mL of culture medium consisting of Basal Medium Eagle, 1% serum-free supplement (Invitrogen, Carlsbad, CA, USA), 1% bovine serum albumin, 5 mg/mL glucose, and 10 U/mL penicillin G. After 4 h of incubation (37°C, 5% CO2), an additional 1 mL of medium was added to submerge the explants.
(§2) The medium was then exchanged for new medium containing a final concentration of 4.5 μM GM with or without various concentrations of the HDAC inhibitors and incubated for 72 h. The stock solutions with 95 mM of SAHA/vorinostat (Cayman Chemical, Ann Arbor, MI, USA), 100 mM of belinostat (Selleckchem, Houson, TX, USA), and 100 mM of panobinostat (Cayman Chemical), were dissolved in 100% dimethyl sulfoxide (DMSO) and stored at −20°C. GM solution was made fresh from powder in culture medium at 0.2 mM and then diluted to the final concentration for each experiment.
(§3) Explants were fixed with 4% paraformaldehyde overnight at 4°C and permeabilized for 30 min with 3% Triton X-100 in phosphate-buffered saline (PBS) at room temperature (22–24°C). The specimens were then washed three times with PBS and incubated with rhodamine-phalloidin (Invitrogen) at a 1:100 dilution for 60 min at room temperature (22–24°C). After rinsing in PBS, the specimens were mounted on a slide with Gel-Mount™ (BioMeda Corp., Foster City, CA, USA). The phalloidin-stained stereociliary bundles and circumferential F-actin rings on the cuticular plate of OHCs allowed the determination of cells that were present or missing. A clear “V” shape of stereocilia indicates the presence of OHCs. If the “V” shape is not visualized, we accept this as a damaged hair cells. Cell populations were assessed on a Leitz Orthoplan upright microscope equipped for epifluorescence, using a 50× oil-immersion objective. […] Each successive 0.19-mm field was evaluated for the absence of OHCs beginning from the apex and moving down the organ of Corti to the base. The percentage of OHC loss was calculated.
After having established the safe concentration range for the HDAC inhibitors, we explored their efficacy as protective agents against GM-induced OHC loss. […] From the assessment of safe doses and the median effective (protective) doses (ED50) of the three HDAC inhibitors, we calculated the therapeutic index (TI = TD50/ED50) to be highest (safest) for belinostat and lowest for panobinostat (for detailed values see Table 2).

[2] = Guinea pig tolerability, serum platelet, BUN and creatinine levels; assay type: in vivo, guinea pigs; settings: GM + DMSO, n=4; in mg/dL (unit assumed)
Description: Pigmented male guinea pigs initially weighing 200–250 g from Charles River were used in the in-vivo study. Experiments were begun 1 week after the guinea pigs arrived. To select safe doses of SAHA for protective studies, we conducted two separate sets of experiments to assess serum platelet concentrations. In the first set, pigmented guinea pigs received daily IP injections of SAHA at lower doses (LD; 2 mg/kg and 5 mg/kg) concurrent with SQ injections of 120 mg GM base/kg body weight daily for 2 weeks. In the second study, the higher doses (HD) of SAHA (15 mg/kg and 25 mg/kg) were used. The DMSO concentration was 1.1 g/kg, equal to the DMSO concentration used for the 25 mg/kg concentration of SAHA. […] We then tested the protective ability of SAHA at LD (2 mg/kg and 5 mg/kg) and at HD of SAHA (15 mg/kg and 25 mg/kg) against GM-induced hearing loss concurrent with daily SQ injections of GM (dissolved in saline) at 120 mg base/kg for 14 days. SAHA was dissolved in 100% DMSO for stock solutions of 25 mg/mL and diluted with saline immediately before IP injections. All compound solutions were filtered with syringe filters before injection. Body weights were measured before each injection. If a guinea pig lost ~5% of its body weight, an additional 3–4 mL of saline was administrated subcutaneously.
Blood was obtained by nail clipping after light anesthesia of the guinea pigs by metofane inhalation after the last drug injections. Blood cells were separated by centrifugation at 1000× g for 15 min, and sera were stored at −20°C. Blood urea nitrogen (BUN), creatinine and platelet concentrations were determined using a Kodak Ektachem700XR Clinical Chemistry Analyzer (Clinical Products Division, Eastman Kodak, Rochester, NY, USA) and analyzed by Dr. Donald Giacherio, Chemical Pathology Laboratory, University of Michigan.
While the CBA/J mouse is a well-established model for chronic KM-induced ototoxicity, we wished to ascertain whether the lack of protection by SAHA might be species-dependent. We therefore tested if SAHA treatment had protective effects against GM-induced hearing loss in guinea pigs. To find safe doses to be used in guinea pigs in vivo, we first assessed serum platelet concentrations. Guinea pigs tolerated injections of SAHA at all concentrations of 5–25 mg/kg body weight concurrent with SQ injections of 120 mg GM base/kg body weight daily for 2 weeks with normal appearing fur and steadily increasing body weight. Blood samples were collected after the last injection.

pigmented guinea pigs = test: Gentamicin-induced ototoxicity in guinea pigs in vivo (ABR threshold shifts, OHC counts), chronic model; settings: GM 120 mg base/kg SQ daily for 2 weeks
Description: Pigmented male guinea pigs initially weighing 200–250 g from Charles River were used in the in-vivo study. Experiments were begun 1 week after the guinea pigs arrived. To select safe doses of SAHA for protective studies, we conducted two separate sets of experiments to assess serum platelet concentrations. […] In the second study, the higher doses (HD) of SAHA (15 mg/kg and 25 mg/kg) were used. The DMSO concentration was 1.1 g/kg, equal to the DMSO concentration used for the 25 mg/kg concentration of SAHA. […] SAHA was dissolved in 100% DMSO for stock solutions of 25 mg/mL and diluted with saline immediately before IP injections. All compound solutions were filtered with syringe filters before injection. Body weights were measured before each injection. If a guinea pig lost ~5% of its body weight, an additional 3–4 mL of saline was administrated subcutaneously.
The procedures for surface preparations of guinea pig cochlear epithelia were followed as previously described (Sha and Schacht, [1999b]). After the last auditory brain stem response (ABR) measurement, guinea pigs from the second group of experiments were deeply anesthetized in a CO2 chamber and decapitated. Cochleae were immediately removed and perfused with 4% paraformaldehyde in PBS at pH 7.4 and fixed overnight at 4°C. Micro-dissected surface preparations of the organ of Corti were permeabilized for 30 min with 0.5% Triton X-100 in PBS at room temperature (22–24°C) and stained with rhodamine phalloidin (Invitrogen) at a 1:100 dilution for 60 min at room temperature (22–24°C). After rinsing in PBS, the specimens were mounted on a slide with Gel-Mount™ (BioMeda Corp.). OHC counts were conducted with microscopy as described above for mice.
ABRs were measured 3 days before and 3 weeks after drug treatments. Animals were anesthetized with IP injections of ketamine (100 mg/kg) and xylazine (10 mg/kg) for mice or ketamine (58.8 mg/kg), xylazine (2.4 mg/kg), and acepromazine (1.2 mg/kg) for guinea pigs. Body temperature was maintained near 37°C with a heating pad. ABRs were measured at 12 and 32 kHz for guinea pigs or 8, 16, and 32 kHz for mice in a sound-isolated and electrically shielded booth (Acoustic Systems, Austin, TX, USA). Sub-dermal electrodes were inserted at the vertex of the skull, under the left ear and under the right ear (ground). […] Thresholds (the lowest stimulus level with a reproducible response) were determined by reducing the intensity in 10-dB steps and then in 5-dB steps approaching the threshold until no organized response was detected. Thresholds were evaluated based on ABR wave I. Scores were given by an expert blinded to experimental conditions between the highest stimulus level without a response and the lowest stimulus level where an organized response was observed. […]

CBA/J mice = test: Kanamycin-induced hearing loss in CBA/J mice in vivo (ABR threshold shifts), chronic model; settings: KM 700 mg base/kg SQ twice daily for 15 days
Description: Male CBA/J mice at the age of 5 weeks received subcutaneous (SQ) injections of KM at 700 mg base/kg (dissolved in saline) twice per day (AM and PM). SAHA for administration was dissolved in 100% DMSO for stock solutions of 50 mg/mL and diluted with saline immediately before intraperitoneal (IP) injection, for a final dose of 50 mg/kg, given twice per day for 15 days. The concentration of DMSO vehicle control was 1 mL/kg body weight. All solutions were filtered with a syringe filter before injection. Body weight was measured before each injection.
ABRs were measured 3 days before and 3 weeks after drug treatments. Animals were anesthetized with IP injections of ketamine (100 mg/kg) and xylazine (10 mg/kg) for mice or ketamine (58.8 mg/kg), xylazine (2.4 mg/kg), and acepromazine (1.2 mg/kg) for guinea pigs. Body temperature was maintained near 37°C with a heating pad. ABRs were measured at 12 and 32 kHz for guinea pigs or 8, 16, and 32 kHz for mice in a sound-isolated and electrically shielded booth (Acoustic Systems, Austin, TX, USA). Sub-dermal electrodes were inserted at the vertex of the skull, under the left ear and under the right ear (ground). Tucker Davis Technology System III hardware and SigGen/Biosig software were used to present the stimuli monaurally (15 ms duration tone bursts with 1 ms rise-fall time) through a Beyer earphone attached to a customized plastic speculum inserted into the ear canal. Up to 1024 responses were averaged for each stimulus level. Thresholds (the lowest stimulus level with a reproducible response) were determined by reducing the intensity in 10-dB steps and then in 5-dB steps approaching the threshold until no organized response was detected. Thresholds were evaluated based on ABR wave I. Scores were given by an expert blinded to experimental conditions between the highest stimulus level without a response and the lowest stimulus level where an organized response was observed. All ABR measurements were conducted by the same experimenter. […]

[3] = tested on: outer hair cells (OHCs) of p3 murine organ of Corti explants; test: Toxicity of HDAC inhibitors in murine cochlear explants (OHC loss by hair cell counts); assay type: cell-based, CBA/J mice; settings: for loss of OHCs: 72 h; for concentration at which changes in orientation of stereociliary bundles of basal-turn OHCs begin / TD50 (median toxic dose, concentration leading to 50% OHC loss): 72 h incubation; for TD50 (median toxic dose, concentration leading to 50% OHC loss): p3 murine explants
Source text: as §1, §2, §3
In order to evaluate the protective potential of the three HDAC inhibitors on aminoglycoside-induced ototoxicity, we first determined their safety on auditory sensory hair cells using p3 murine organ of Corti explants. Explants were incubated for 2 days for recovery from the stress of dissection, followed by 72 h of incubation with or without inhibitors. Toxic effects were assessed by OHC loss. […] OHCs in the basal turn show changes in the orientation of the stereociliary bundles beginning with concentrations of 4 μM for SAHA, 3 μM for belinostat, and 20 nM for panobinostat.

[4] = tested on: hair cells in organotypic cultures of the cochlea; design: method as in Chen et al., 2009; settings: ref Chen et al., 2009; cited from earlier work
guinea pigs = tested on: guinea pigs; design: method as in Wang et al., 2015; settings: locally applied to the middle ear; ref Wang et al., 2015; cited from earlier work

## CNC(C)C1CCC(N)C(OC2C(N)CC(N)C(OC3OCC(C)(O)C(NC)C3O)C2O)O1 (stereo not drawn) [GM, gentamicin]
[1]; GM 4.5 μM with vehicle (DMSO) alone, 72 h, base-to-apex gradient
  overall loss of OHCs: 40%
[2]
  BUN: 16 ± 4.5
  Cr: 0.5 ± 0.22
Pigmented guinea pigs
  OHC loss in the basal turn: significant OHC loss

## NC[C@H]1O[C@H](O[C@H]2[C@H](O)[C@@H](O[C@H]3O[C@H](CO)[C@@H](O)[C@H](N)[C@H]3O)[C@H](N)C[C@@H]2N)[C@H](O)[C@@H](O)[C@@H]1O [KM, kanamycin]
CBA/J mice; 16 kHz
  auditory threshold shift (ABR), average: 55 dB
CBA/J mice; 32 kHz
  auditory threshold shift (ABR), average: 55 dB

## O=C(/C=C/c1cccc(S(=O)(=O)Nc2ccccc2)c1)NO [belinostat]
[3]; 5 μM
  loss of OHCs: 100%
[3]
  concentration at which changes in orientation of stereociliary bundles of basal-turn OHCs begin: 3000 nM
  TD50 (median toxic dose, concentration leading to 50% OHC loss): 3.5 µM
[1]; 72 h
  concentration at which protection from GM-induced OHC loss begins: 0.1 µM
  concentration that completely prevents GM-induced OHC loss: 0.4 µM
[1]
  ED50 (median effective protective dose): 50 nM

## CCCC(=O)O [butyrate, sodium butyrate]
[4]
  effect on hair cells under GM-induced damage: rescued hair cells
Guinea pigs
  protection of guinea pigs in vivo: protected

## Cc1[nH]c2ccccc2c1CCNCc1ccc(/C=C/C(=O)NO)cc1 [panobinostat]
[3]; 50 nM
  loss of OHCs: 100%
[3]
  concentration at which changes in orientation of stereociliary bundles of basal-turn OHCs begin: 20 nM
  TD50 (median toxic dose, concentration leading to 50% OHC loss): 0.035 µM
[1]; 72 h
  concentration at which protection from GM-induced OHC loss begins: 0.005 µM
  concentration that completely prevents GM-induced OHC loss: 0.015 µM
[1]
  ED50 (median effective protective dose): 9 nM

## CC(/C=C/C(=O)NO)=C\[C@@H](C)C(=O)c1ccc(N(C)C)cc1 [trichostatin A]
[4]
  effect on hair cells under GM-induced damage: rescued hair cells
